The source of these data is ChEMBL document CHEMBL1151078, “An efficient synthesis of short-chain sphingomyelin analogs and their susceptibility to hydrolysis catalyzed by sphingomyelinase” (1997).

The structures appear in SMILES notation.

The subject of this test is Bacillus cereus. The experiment in a line: Initial velocity (v) of the hydrolysis catalyzed by Bacillus cereus sphingomyelinase was measured. In kind it is functional.

For the molecule `CCCCCCC[C@H](O)[C@H](COP(=O)([O-])OCC[N+](C)(C)C)NC(=O)CCCCC`, the Velocity is 5.08 µM/min/mg.

On to `CCCCC/C=C/[C@H](O)[C@H](COP(=O)([O-])OCC[N+](C)(C)C)NC(=O)CCCCC`, for which the Velocity came out at 11.17 µM/min/mg.

For the molecule `CCCCCCC[C@@H](O)[C@H](COP(=O)([O-])OCC[N+](C)(C)C)NC(=O)CCCCC`, the Velocity worked out at 109.15 µM/min/mg. `CCCCC/C=C/[C@@H](O)[C@H](COP(=O)([O-])OCC[N+](C)(C)C)NC(=O)CCCCC` displayed a Velocity of 136.31 µM/min/mg.
